Read-outs that look alike come from different tables or passages of the source.
Experiments:
Assay type in all cases: cell-based, human
A549 cells [1] = experiment: MTT cytotoxicity assay, A549; details: for IC50: read-out: IC50 A549; for SI A549: selectivity index = IC50 in MRC-5 / IC50 in A549
SW480 cells = experiment: MTT cytotoxicity assay, SW480; details: for IC50: Homo sapiens, SW480, 72 h, read-out: IC50 SW480; for SI SW480: selectivity index = IC50 in MRC-5 / IC50 in SW480
A549 cells [2] = experiment: Cell cycle analysis by flow cytometry; details: 24 h; for cell population in S phase: control 18.89%; for cell population in G0/G1 phase: control 67.87%
A549 cells [3] = experiment: Apoptosis assay, Annexin V-FITC/PI flow cytometry; details: 24 h; for early apoptotic cells (Q3, annexin+/PI-): control 1.8%; for late apoptotic cells (Q2, annexin+/PI+): control 2.4%

Row | Compound | IC50 (SW480 cells) [µM] | IC50 (A549 cells [1]; Homo sapiens, A549, 72 h) [µM] | other results
1 | N.N.[Cl][Pt][Cl] [Cisplatin, reference compound] | – | – | IC50 (A549 cells [1]; MTT, 72 h, mean ± SD of 3–4 independent replicates): 5.77 ± 1.6 µM
2 | CCCCNC(=O)c1ccc2nc(-c3cc(OC)c(OC)c(OC)c3)[nH]c2c1 [Compound 5a, N-Butyl-2-(3,4,5-trimethoxyphenyl)-1H-benzo[d]imidazole-6-carboxamide] | 46.1 ± 9.23 | 24.8 ± 5.21 | –
3 | COc1cc(-c2nc3ccc(C(=O)NCC(C)C)cc3[nH]2)cc(OC)c1OC [Compound 5b, N-Isobutyl-2-(3,4,5-trimethoxyphenyl)-1H-benzo[d]imidazole-6-carboxamide] | 18.8 ± 3.25 | 0.82 ± 0.2 | –
4 | COc1cc(-c2nc3ccc(C(=O)NCc4ccccc4)cc3[nH]2)cc(OC)c1OC [Compound 5c, N-Benzyl-2-(3,4,5-trimethoxyphenyl)-1H-benzo[d]imidazole-6-carboxamide] | 34.8 ± 5.37 | 16.3 ± 5.73 | –
5 | COc1cc(-c2nc3ccc(C(=O)NCCc4ccccc4)cc3[nH]2)cc(OC)c1OC [Compound 5d, N-Phenethyl-2-(3,4,5-trimethoxyphenyl)-1H-benzo[d]imidazole-6-carboxamide] | 18.2 ± 2.69 | 0.66 ± 0.13 | –
6 | COc1cc(-c2nc3ccc(C(=O)Nc4ccccc4)cc3[nH]2)cc(OC)c1OC [Compound 5e, N-Phenyl-2-(3,4,5-trimethoxyphenyl)-1H-benzo[d]imidazole-6-carboxamide] | 5.45 ± 0.67 | 0.23 ± 0.05 | SI SW480 (SW480 cells): 2.1; SI A549 (A549 cells [1]): 50.2
7 | COc1cc(-c2nc3ccc(C(=O)Nc4ccccc4F)cc3[nH]2)cc(OC)c1OC [Compound 5f, N-(2-Fluorophenyl)-2-(3,4,5-trimethoxyphenyl)-1H-benzo[d]imidazole-6-carboxamide] | 6.38 ± 1.95 | 0.67 ± 0.15 | SI SW480 (SW480 cells): 1.7; SI A549 (A549 cells [1]): 15.8
8 | COc1cc(-c2nc3ccc(C(=O)Nc4ccccc4Cl)cc3[nH]2)cc(OC)c1OC [Compound 5g, N-(2-Chlorophenyl)-2-(3,4,5-trimethoxyphenyl)-1H-benzo[d]imidazole-6-carboxamide] | 49.1 ± 2.84 | 17.3 ± 3.5 | –
9 | COc1cc(-c2nc3ccc(C(=O)Nc4cccc(Cl)c4)cc3[nH]2)cc(OC)c1OC [Compound 5h, N-(3-Chlorophenyl)-2-(3,4,5-trimethoxyphenyl)-1H-benzo[d]imidazole-6-carboxamide] | 52.7 ± 2.96 | 27.5 ± 6.78 | –
10 | COc1cc(-c2nc3ccc(C(=O)Nc4ccc([N+](=O)[O-])cc4Cl)cc3[nH]2)cc(OC)c1OC [Compound 5i, N-(2-Chloro-4-nitrophenyl)-2-(3,4,5-trimethoxyphenyl)-1H-benzo[d]imidazole-6-carboxamide] | 20.2 ± 7.21 | 5.78 ± 4.85 | –
11 | COc1cc(-c2nc3ccc(C(=O)Nc4ccc(Br)cc4)cc3[nH]2)cc(OC)c1OC [Compound 5j, N-(4-Bromophenyl)-2-(3,4,5-trimethoxyphenyl)-1H-benzo[d]imidazole-6-carboxamide] | 15.2 ± 2.58 | 13.1 ± 1.27 | –
12 | COc1cc(-c2nc3ccc(C(=O)Nc4cccc([N+](=O)[O-])c4)cc3[nH]2)cc(OC)c1OC [Compound 5k, N-(3-Nitrophenyl)-2-(3,4,5-trimethoxyphenyl)-1H-benzo[d]imidazole-6-carboxamide] | 16.8 ± 1.41 | 14.4 ± 3.53 | –
13 | COc1cc(-c2nc3ccc(C(=O)Nc4ccccc4C)cc3[nH]2)cc(OC)c1OC [Compound 5l, N-(o-Tolyl)-2-(3,4,5-trimethoxyphenyl)-1H-benzo[d]imidazole-6-carboxamide] | 9.31 ± 0.21 | 0.92 ± 0.39 | –
14 | COc1cc(-c2nc3ccc(C(=O)Nc4ccc(C)cc4)cc3[nH]2)cc(OC)c1OC [Compound 5m, N-(p-Tolyl)-2-(3,4,5-trimethoxyphenyl)-1H-benzo[d]imidazole-6-carboxamide] | 13 ± 1.2 | 0.52 ± 0.12 | SI SW480 (SW480 cells): 1.2; SI A549 (A549 cells [1]): 28.9
15 | COc1cc(-c2nc3ccc(C(=O)Nc4ccc(C)cc4C)cc3[nH]2)cc(OC)c1OC [Compound 5n, N-(2,4-Dimethylphenyl)-2-(3,4,5-trimethoxyphenyl)-1H-benzo[d]imidazole-6-carboxamide] | 14.8 ± 1.63 | 1.38 ± 0.23 | –
16 | COc1ccc(NC(=O)c2ccc3nc(-c4cc(OC)c(OC)c(OC)c4)[nH]c3c2)c(OC)c1 [Compound 5o, N-(2,4-Dimethoxyphenyl)-2-(3,4,5-trimethoxyphenyl)-1H-benzo[d]imidazole-6-carboxamide] | 3.68 ± 0.59 | 0.15 ± 0.01 | fold stronger cytotoxic activity than cisplatin (SW480 cells; SW480 cells): 4.1 fold; fold stronger cytotoxic activity than etoposide (SW480 cells; SW480 cells): 4.5 fold; SI SW480 (SW480 cells): 32.4; fold higher cytotoxic activity than cisplatin (A549 cells [1]; A549 cells): 38.5 fold; fold higher cytotoxic activity than doxorubicin (A549 cells [1]; A549 cells): 3.1 fold; fold higher cytotoxic activity than etoposide (A549 cells [1]; A549 cells): 62.9 fold; SI A549 (A549 cells [1]): 794.6; cell population in S phase (A549 cells [2]; A549, 0.15 μM): 43.58%; cell population in G0/G1 phase (A549 cells [2]; A549, 0.15 μM): 46.44%; cell population in G2/M phase (A549 cells [2]; A549, 0.30 μM, control 13.24%): 4.53%; cell population in S phase (A549 cells [2]; A549, 0.30 μM): 60.31%; cell population in G0/G1 phase (A549 cells [2]; A549, 0.30 μM): 35.16%; total apoptosis rate (Q2 + Q3) (A549 cells [3]; A549, 0.15 μM): 15.2%; early apoptotic cells (Q3, annexin+/PI-) (A549 cells [3]; A549, 0.15 μM): 9.8%; late apoptotic cells (Q2, annexin+/PI+) (A549 cells [3]; A549, 0.15 μM): 5.4%; total apoptosis rate (Q2 + Q3) (A549 cells [3]; A549, 0.30 μM): 74.3%; early apoptotic cells (Q3, annexin+/PI-) (A549 cells [3]; A549, 0.30 μM): 34.4%; late apoptotic cells (Q2, annexin+/PI+) (A549 cells [3]; A549, 0.30 μM): 39.9%
17 | COc1cccc2c1C(=O)c1c(O)c3c(c(O)c1C2=O)C[C@@](O)(C(=O)CO)C[C@@H]3O[C@H]1C[C@H](N)[C@H](O)[C@H](C)O1 [Doxorubicin, reference compound] | 0.59 ± 0.07 | 0.46 ± 0.02 | SI SW480 (SW480 cells): 0.7; SI A549 (A549 cells [1]): 0.8
18 | COc1cc([C@@H]2c3cc4c(cc3[C@@H](O[C@@H]3O[C@@H]5CO[C@@H](C)O[C@H]5[C@H](O)[C@H]3O)[C@H]3COC(=O)[C@H]23)OCO4)cc(OC)c1O [Etoposide, reference compound] | 16.6 ± 2.3 | 9.44 ± 1.98 | –

Reference: publication PMC11536976 (RSC Advances, 2024)
